The assay has as its system BDF1 mice, P388 leukemia ip, median survival T/C. Description: NCI In Vivo Anticancer Drug Screen. Data for tumor model P388 Leukemia (intraperitoneal) in B6D2F1 (BDF1) mice. The settings on record: endpoint: median survival time, higher = longer survival. An outline of the steps:
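Each value expresses how treatment altered survival: treated-mouse outcome over vehicle-mouse outcome, both groups bearing the transplanted tumour.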

Setting [1] is: dose: 50.0 mg/kg/injection, schedule: Q01DX009 (ip), vehicle: saline with Tween-80.
Where [2] appears, read: dose: 50.0 mg/kg/injection, schedule: Q04DX003 (ip), vehicle: saline with Tween-80.
[3] abbreviates: dose: 100.0 mg/kg/injection, schedule: Q01DX009 (ip), vehicle: saline with Tween-80.
[4] abbreviates: dose: 100.0 mg/kg/injection, schedule: Q04DX003 (ip), vehicle: saline with Tween-80.
Setting [5] is: dose: 200.0 mg/kg/injection, schedule: Q04DX003 (ip), vehicle: saline with Tween-80.
Setting [6] is: dose: 400.0 mg/kg/injection, schedule: Q04DX003 (ip), vehicle: saline with Tween-80.

Where “and” joins values, the source holds several entries; their conditions need not be identical. Equal values may be shown once. Inconclusive results and toxic doses are left out.

With `CCOC(=N)CC(=N)OCC`, the T/C was 103 % of control (dose: 100.0 mg/kg/injection, schedule: Q01DX009 (ip), vehicle: water); 104 % of control (dose: 100.0 mg/kg/injection, schedule: Q04DX003 (ip), vehicle: water); 103 % of control (dose: 200.0 mg/kg/injection, schedule: Q01DX009 (ip), vehicle: water); 100 % of control (dose: 200.0 mg/kg/injection, schedule: Q04DX003 (ip), vehicle: water); 101 % of control (dose: 400.0 mg/kg/injection, schedule: Q01DX009 (ip), vehicle: water); 100 % of control (dose: 400.0 mg/kg/injection, schedule: Q04DX003 (ip), vehicle: water).

On to `CC(=O)O.CC(=O)O.[NH-]C(CCC(N)=O)C(=O)O.[NH-]C(CCC(N)=O)C(=O)O.[Ni+2]` (centres undefined), for which the T/C is 104 % of control (dose: 12.5 mg/kg/injection, schedule: Q01DX009 (ip), vehicle: saline) and 93 % of control (dose: 25.0 mg/kg/injection, schedule: Q01DX009 (ip), vehicle: saline).

Regarding `CC(=O)NC1CC(=O)N(c2ccccc2)C1` (centres undefined), the T/C was 102 % of control (dose: 87.5 mg/kg/injection, schedule: Q01DX009 (ip), vehicle: saline with Tween-80); 111 % of control (dose: 175.0 mg/kg/injection, schedule: Q01DX009 (ip), vehicle: saline with Tween-80); 100 % of control (dose: 350.0 mg/kg/injection, schedule: Q01DX009 (ip), vehicle: saline with Tween-80).

As to `Cc1cc(O)c2cc3c(O)c(O)ccc3cc2c1`, the T/C reads like this: (dose: 0.5 mg/kg/injection, schedule: Q01DX010 (ip), vehicle: saline) 100 % of control; (dose: 1.0 mg/kg/injection, schedule: Q01DX010 (ip), vehicle: saline) 109 % of control; (dose: 2.0 mg/kg/injection, schedule: Q01DX010 (ip), vehicle: saline) 118 % of control and 122 % of control; (dose: 4.0 mg/kg/injection, schedule: Q01DX010 (ip), vehicle: saline) 122 % of control; (dose: 31.3 micrograms/kg/injection, schedule: Q01DX010 (ip), vehicle: saline) 109 % of control; (dose: 125.0 micrograms/kg/injection, schedule: Q01DX010 (ip), vehicle: saline) 90 % of control. Further, under “dose: 250.0 micrograms/kg/injection, schedule: Q01DX010 (ip), vehicle: saline”, the T/C was 90 % of control.

For the compound `CCCC(O)(CCC)CC(=O)OCC`, the T/C (dose: 100.0 mg/kg/injection, schedule: Q04DX003 (ip), vehicle: saline sonified) is 104 % of control; the T/C (dose: 200.0 mg/kg/injection, schedule: Q04DX003 (ip), vehicle: saline sonified) is 109 % of control; the T/C (dose: 400.0 mg/kg/injection, schedule: Q04DX003 (ip), vehicle: saline sonified) was 113 % of control.

On to `C(=N\Nc1nc2ccccc2s1)/c1ccccc1`, for which the T/C runs as follows: (dose: 100.0 mg/kg/injection, schedule: Q01DX009 (ip), vehicle: Klucel (hydroxypropylcellulose) (HPC)) 95 % of control; (dose: 200.0 mg/kg/injection, schedule: Q01DX009 (ip), vehicle: Klucel (hydroxypropylcellulose) (HPC)) 109 % of control; (dose: 400.0 mg/kg/injection, schedule: Q01DX009 (ip), vehicle: Klucel (hydroxypropylcellulose) (HPC)) 90 % of control.

For `COC(=O)/C=C1\C(C(=O)OC)=Cc2ccccc2N1C`, the T/C (dose: 12.5 mg/kg/injection, schedule: Q01DX009 (ip), vehicle: saline with Tween-80) was 100 % of control; the T/C (dose: 25.0 mg/kg/injection, schedule: Q01DX009 (ip), vehicle: saline with Tween-80) was 100 % of control; the T/C (dose: 25.0 mg/kg/injection, schedule: Q04DX003 (ip), vehicle: saline with Tween-80) is 104 % of control; the T/C under setting [1] was 105 % of control; the T/C under setting [2] is 100 % of control; the T/C under setting [3] was 91 % of control. In addition, the T/C under setting [4] is 87 % of control and 90 % of control; the T/C under setting [5] was 87 % of control.

As for `COc1ccc2[nH]c3c(C)c4ccncc4c(C)c3c2c1`, the T/C is 117 % of control (dose: 4.68 mg/kg/injection, schedule: Q01DX009 (ip), vehicle: water); 88 % of control (dose: 9.37 mg/kg/injection, schedule: Q01DX009 (ip), vehicle: water); 176 % of control (dose: 9.37 mg/kg/injection, schedule: Q04DX003 (ip), vehicle: water); 87 % of control (dose: 18.5 mg/kg/injection, schedule: Q01DX009 (ip), vehicle: other); 188 % of control (dose: 18.5 mg/kg/injection, schedule: Q04DX003 (ip), vehicle: water); 112 % of control (dose: 18.75 mg/kg/injection, schedule: Q01DX001 (ip), vehicle: other). The T/C is, setting by setting: (dose: 18.75 mg/kg/injection, schedule: Q01DX001 (ip), vehicle: water) 176 % of control; (dose: 18.75 mg/kg/injection, schedule: Q01DX009 (ip), vehicle: water) 94 % of control; (dose: 37.5 mg/kg/injection, schedule: Q01DX001 (ip), vehicle: other) 116 % of control; (dose: 37.5 mg/kg/injection, schedule: Q01DX001 (ip), vehicle: water) 164 % of control; (dose: 37.5 mg/kg/injection, schedule: Q04DX003 (ip), vehicle: other) 158 % of control; (dose: 75.0 mg/kg/injection, schedule: Q01DX001 (ip), vehicle: water) 200 % of control. Besides, the T/C (dose: 75.0 mg/kg/injection, schedule: Q04DX003 (ip), vehicle: other) was 95 % of control.

Take `O=C1NCCN1c1cccc([N+](=O)[O-])c1`: the T/C runs as follows: (dose: 25.0 mg/kg/injection, schedule: Q04DX003 (ip), vehicle: Klucel (hydroxypropylcellulose) (HPC)) 100 % of control; (dose: 50.0 mg/kg/injection, schedule: Q04DX003 (ip), vehicle: Klucel (hydroxypropylcellulose) (HPC)) 100 % of control.

In the case of `COC(OC)c1ccccc1`, the T/C by setting is: under setting [1], 99 % of control; under setting [3], 115 % of control; (dose: 200.0 mg/kg/injection, schedule: Q01DX009 (ip), vehicle: saline with Tween-80) 108 % of control.

Consider `CCc1ccc(C(C)(C)C)cc1`, for which the T/C is 109 % of control under setting [2]; 104 % of control under setting [4]; 118 % of control (dose: 132.0 mg/kg/injection, schedule: Q01DX009 (ip), vehicle: saline with Tween-80); 100 % of control under setting [5].

For `COC(=O)c1ccc2oc(=O)cc(C)c2c1O`, the T/C is, setting by setting: under setting [4], 104 % of control; under setting [5], 100 % of control; under setting [6], 95 % of control.

On to `CC(=O)Oc1cc(OCCCc2ccc(F)cc2)cc2c1-c1ccccc1CC2`, for which the T/C reads like this: under setting [4], 99 % of control; under setting [5], 89 % of control; under setting [6], 97 % of control.

Consider `C[C@@H]1O[C@@H](O[C@H]2CC[C@]3(C=O)[C@H]4CC[C@]5(C)[C@@H](c6ccc(=O)oc6)CC[C@]5(O)[C@@H]4CC[C@]3(O)C2)[C@H](O)[C@H](O)[C@H]1O[C@@H]1O[C@H](CO)[C@@H](O)[C@H](O)[C@H]1O`, for which the T/C (dose: 0.6 mg/kg/injection, schedule: Q01DX010 (ip), vehicle: carboxymethylcellulose (CMC)) is 95 % of control; the T/C (dose: 1.2 mg/kg/injection, schedule: Q01DX010 (ip), vehicle: carboxymethylcellulose (CMC)) was 104 % of control; the T/C (dose: 2.5 mg/kg/injection, schedule: Q01DX010 (ip), vehicle: carboxymethylcellulose (CMC)) was 95 % of control and 120 % of control; the T/C (dose: 5.0 mg/kg/injection, schedule: Q01DX010 (ip), vehicle: carboxymethylcellulose (CMC)) was 100 % of control.

As for `NC1CCC(CCCC2CCCC2)CC1` (centres undefined), the T/C was 101 % of control (dose: 25.0 mg/kg/injection, schedule: Q01DX009 (ip), vehicle: Klucel (hydroxypropylcellulose) (HPC)) and 110 % of control (dose: 50.0 mg/kg/injection, schedule: Q01DX009 (ip), vehicle: Klucel (hydroxypropylcellulose) (HPC)).

In the case of `Nc1ccccc1.[C-]#[O+].[C-]#[O+].[C-]#[O+].[C-]#[O+].[C-]#[O+].[Cr]`, the T/C (dose: 2.5 mg/kg/injection, schedule: Q01DX009 (ip), vehicle: saline) was 91 % of control and the T/C (dose: 5.0 mg/kg/injection, schedule: Q01DX009 (ip), vehicle: saline) was 101 % of control.

Regarding `O=C1C=C(Nc2ccccc2)CCC1`, the T/C reads like this: (dose: 50.0 mg/kg/injection, schedule: Q01DX009 (ip), vehicle: saline) 99 % of control; (dose: 100.0 mg/kg/injection, schedule: Q01DX009 (ip), vehicle: saline) 100 % of control; (dose: 200.0 mg/kg/injection, schedule: Q01DX009 (ip), vehicle: saline) 103 % of control.

With `CCCNC1=C(N2CC2)C(=O)C(NCCC)=C(N2CC2)C1=O`, the T/C reads like this: (dose: 1.5 mg/kg/injection, schedule: Q01DX009 (ip), vehicle: saline) 161 % of control; (dose: 3.0 mg/kg/injection, schedule: Q01DX009 (ip), vehicle: saline) 166 % of control and 203 % of control; (dose: 6.0 mg/kg/injection, schedule: Q01DX009 (ip), vehicle: saline) 251 % of control and 208 % of control.
